From patent publication US11219627B2, “Clearance of amyloid beta” (priority 2014, dated 2022)
Read-outs that look alike come from different tables or passages of the source.

Key:
[1] = tested on: mild-to-moderate AD patients; assay: two-year randomized trial of galantamine and placebo; assay type: in vivo, human; conditions: 24 months
α7 nicotinic receptors = target: T1, α7 nicotinic receptors (Rattus norvegicus, UniProt Q05941); conditions: 1 μM; 1.5 mM choline; cited from earlier work
T1 construct: Primary cultured rat neurons can be depolarized by the application of 1.5 mM choline; endogenous in cells; host or cells: primary cultured rat neurons

[2] = human patients; cited from earlier work
[3] = tested on: Mice with lesions of the nucleus basalis magnocellularis (nBm); conditions: cited from earlier work
[4] = tested on: mild-to-moderate AD patients; conditions: cited from earlier work
MCI patients = conditions: cited from earlier work
APdE9 mice = conditions: cited from earlier work; for insoluble Aβ in mouse brains: 2 months
[5] = tested on: mice transgenic for a single, different Swedish APP mutation; conditions: ten days at 2 mg/kg/day; cited from earlier work
[6] = tested on: mice transgenic for an anti-NGF (nerve growth factor) antibody; conditions: 3.5 mg/kg/day, cited from earlier work
[7] = tested on: Primary rat cultured cortical neurons; conditions: cited from earlier work
[8] = tested on: adrenal chromaffin and human neuroblastoma cells; conditions: 100 to 300 nM; Aβ1-40 10 μM; cited from earlier work
[9] = tested on: serum tumor necrosis factor (TNF); conditions: cited from earlier work
Aβ1-40 = Aβ1-40 (Homo sapiens, UniProt P05067); conditions: 500 nM; 50 μM Aβ1-40; cited from earlier work
neuroblastoma cells = conditions: 300 nM; cited from earlier work
β-secretase = conditions: 300 nM; cited from earlier work
CSF Aβ = conditions: in vivo; cited from earlier work

T1 sequence (Q05941 23-502): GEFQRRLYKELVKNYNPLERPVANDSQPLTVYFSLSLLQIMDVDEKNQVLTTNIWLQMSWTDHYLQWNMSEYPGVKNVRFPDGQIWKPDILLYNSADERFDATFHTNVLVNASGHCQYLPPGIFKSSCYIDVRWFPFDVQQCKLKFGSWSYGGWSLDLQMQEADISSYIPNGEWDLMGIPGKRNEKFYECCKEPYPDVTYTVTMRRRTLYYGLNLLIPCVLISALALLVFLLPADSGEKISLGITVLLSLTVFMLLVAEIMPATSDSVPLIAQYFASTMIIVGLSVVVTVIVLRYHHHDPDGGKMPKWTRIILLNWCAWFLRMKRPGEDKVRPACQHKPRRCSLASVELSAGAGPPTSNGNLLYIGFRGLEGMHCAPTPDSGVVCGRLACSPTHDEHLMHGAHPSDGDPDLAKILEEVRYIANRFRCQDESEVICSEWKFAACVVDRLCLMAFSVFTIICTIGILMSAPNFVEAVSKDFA
Sequence of Aβ1-40 (P05067 672-711 limits assumed): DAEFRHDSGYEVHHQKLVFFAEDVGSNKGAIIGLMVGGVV

In the case of `COc1ccc2c3c1O[C@H]1C[C@@H](O)C=C[C@@]31CCN(C)C2` [galantamine, (4aS,6R,8aS)-5,6,9,10,11,12-hexahydro-3-methoxy-11-methyl-4aH-[1]benzofuro[3a,3,2-ef][2]benzazepin-6-ol], the “Disability Assessment in Dementia percent difference versus placebo” value [1] is reported as 24%, the “MMSE percent difference versus placebo” value [1] is reported as 34% and the “reduction of MMSE deterioration versus placebo” value ([1]; patients receiving memantine removed) is reported as 48%. The “enhancement of the depolarization caused by choline” value (α7 nicotinic receptors) was 20.6±4.2%, the plasma half-life [2] was “about 7 hours” and the “additional time remaining in the lighted compartment versus saline” value ([3]; given during training, optimal performance) was “about 125 seconds”. For the same molecule, the “best dose for memory enhancement” value ([3]; passive avoidance) was 3 mg/kg, the MMSE change ([4]; 6 months) was 0.15 and the “MMSE difference versus placebo” value ([4]; 6 months) was 0.43. The “Disability Assessment in Dementia change” value ([4]; 12 months) was −4.55, the “Disability Assessment in Dementia difference versus placebo” value ([4]; 12 months) was 1.95 and the MMSE deterioration ([4]; 24 months, patients receiving memantine removed) was 1.12 points. The “Disability Assessment in Dementia change” value ([4]; 24 months) was −8.16, the “Disability Assessment in Dementia difference versus placebo” value ([4]; 24 months) was 2.65 and the MMSE change ([4]; 24 months) was −1.41. The “MMSE difference versus placebo” value ([4]; 24 months) was 0.73, the “mortality less than in placebo patients” value ([4]; in vivo) was 42% and the deaths (MCI patients; 24-month study period, all patients entered) was 34. The “reduction of global atrophy (serial MRIs) versus placebo” value (MCI patients; subpopulation of two-year MCI study) was 33%, the deaths (MCI patients; within 30 days of stopping galantamine) was 14 and the “insoluble Aβ in mouse brains” value (APdE9 mice; 1 mg/kg/day) was “significantly reduced insoluble (fibrillar) Aβ1-40”. For the same molecule, the “insoluble Aβ in mouse brains” value (APdE9 mice; 5 mg/kg/day) was “reduced both Aβ1-40 and Aβ1-42”, the “soluble Aβ species” value (APdE9 mice; 1 or 5 mg/kg/day) was “Neither dose significantly affected soluble Aβ species” and the “insoluble or soluble Aβ species” value [5] was “did not reduce insoluble or soluble Aβ species”. The synaptophysin levels [5] was “significantly raise synaptophysin levels”, the “intracellular Aβ deposits” value ([6]; after 15 days) was “decreased intracellular Aβ deposits” and the ChAT activity [6] was “restored ChAT activity”. The “protection of neurons against Aβ plus glutamate” value ([7]; 0.1 μM) was “intermediate effect which is not statistically significant”, the “protection of neurons against Aβ plus glutamate” value ([7]; 1.0 μM) was “protects neurons against Aβ plus glutamate” and the Aβ1-40-induced apoptosis [8] was “reduced Aβ1-40-induced apoptosis”. The “serum tumor necrosis factor (TNF)” value ([9]; 1 mg/kg, administered prior to endotoxin) was “significantly reduces serum tumor necrosis factor (TNF)”, the “dose at which survival is improved significantly” value ([9]; endotoxin) was 4 mg/kg and the “aggregation of Aβ1-40” value (Aβ1-40) was “reduce aggregation”. The “release of Aβ1-40 and Aβ1-42” value (neuroblastoma cells) was “decreased”, the “activity of β-secretase” value (β-secretase) was “decreased” and the “effect on CSF Aβ” value (CSF Aβ) was “does not lower CSF Aβ”.
